According to the NIST ThermoML archive (doi:10.1016/j.fluid.2014.11.020):
Numbers after ± are expanded uncertainties.

Test: activity coefficient (dimensionless); of the first substance listed, at infinite dilution; xn = mol fraction of the nth substance listed
Conditions: Liquid, Chromatography, x1 = 0

Structure (SMILES)	activity coefficient (323.15 K)	activity coefficient (333.15 K)	activity coefficient (343.15 K)
CO [methanol] + Cn1cc[n+](COCCCOC[n+]2ccn(C)c2)c1.N#C[N-]C#N.N#C[N-]C#N	0.38 ± 0.03	0.38 ± 0.03	0.37 ± 0.03
CO [methanol] + Cn1cc[n+](COCCCOC[n+]2ccn(C)c2)c1.O=S(=O)([N-]S(=O)(=O)C(F)(F)F)C(F)(F)F.O=S(=O)([N-]S(=O)(=O)C(F)(F)F)C(F)(F)F	0.76 ± 0.05	0.75 ± 0.05	0.68 ± 0.05
CO [methanol] + N#C[N-]C#N.N#C[N-]C#N.c1ccc(Cn2cc[n+](COCCCOC[n+]3ccn(Cc4ccccc4)c3)c2)cc1	0.52 ± 0.04	0.51 ± 0.04	0.52 ± 0.04
CC1CCCCC1 [methylcyclohexane] + CCCCCCCCn1cc[n+](COCCC)c1C.N#C[N-]C#N	5.11 ± 0.35	4.86 ± 0.33	4.81 ± 0.33
CC1CCCCC1 [methylcyclohexane] + CCCCCCCCn1cc[n+](COCCC)c1C.O=S(=O)([N-]S(=O)(=O)C(F)(F)F)C(F)(F)F	3.09 ± 0.21	2.91 ± 0.2	2.8 ± 0.19
CC1CCCCC1 [methylcyclohexane] + CCCCCCCCn1cc[n+](COCCCOC[n+]2ccn(CCCCCCCC)c2C)c1C.N#C[N-]C#N.N#C[N-]C#N	5.75 ± 0.39	5.07 ± 0.35	4.82 ± 0.33
CC1CCCCC1 [methylcyclohexane] + CCCCCCCCn1cc[n+](COCCCOC[n+]2ccn(CCCCCCCC)c2C)c1C.O=S(=O)([N-]S(=O)(=O)C(F)(F)F)C(F)(F)F.O=S(=O)([N-]S(=O)(=O)C(F)(F)F)C(F)(F)F	2.94 ± 0.2	2.71 ± 0.18	2.73 ± 0.19
CC1CCCCC1 [methylcyclohexane] + CCCOC[n+]1ccc(N(C)C)cc1.O=S(=O)([N-]S(=O)(=O)C(F)(F)F)C(F)(F)F	9.3 ± 0.63	8.99 ± 0.61	7.79 ± 0.53
CC1CCCCC1 [methylcyclohexane] + CCCOC[n+]1ccn(C)c1.F[B-](F)(F)F	76 ± 5.2	70.4 ± 4.8	59.7 ± 4.1
CC1CCCCC1 [methylcyclohexane] + CCCOC[n+]1ccn(C)c1.N#C[N-]C#N	44.3 ± 3	39.6 ± 2.7	35.6 ± 2.4
CC1CCCCC1 [methylcyclohexane] + CCCOC[n+]1ccn(C)c1.O=S(=O)([N-]S(=O)(=O)C(F)(F)F)C(F)(F)F	13 ± 0.89	12.9 ± 0.88	13 ± 0.89
CC1CCCCC1 [methylcyclohexane] + CCCOC[n+]1ccn(Cc2ccccc2)c1.N#C[N-]C#N	21.3 ± 1.5	20.4 ± 1.4	18.2 ± 1.2
CC1CCCCC1 [methylcyclohexane] + CCCOC[n+]1ccn(Cc2ccccc2)c1.O=S(=O)([N-]S(=O)(=O)C(F)(F)F)C(F)(F)F	6.47 ± 0.44	6.14 ± 0.42	5.7 ± 0.39
CC1CCCCC1 [methylcyclohexane] + CN(C)c1cc[n+](COCCCOC[n+]2ccc(N(C)C)cc2)cc1.O=S(=O)([N-]S(=O)(=O)C(F)(F)F)C(F)(F)F.O=S(=O)([N-]S(=O)(=O)C(F)(F)F)C(F)(F)F	13.9 ± 0.95	12.7 ± 0.87	11.8 ± 0.8
CC1CCCCC1 [methylcyclohexane] + Cn1cc[n+](COCCCOC[n+]2ccn(C)c2)c1.O=S(=O)([N-]S(=O)(=O)C(F)(F)F)C(F)(F)F.O=S(=O)([N-]S(=O)(=O)C(F)(F)F)C(F)(F)F	21 ± 1.4	18.3 ± 1.2	–
CC1CCCC1 [methylcyclopentane] + CCCCCCCCn1cc[n+](COCCC)c1C.N#C[N-]C#N	4.37 ± 0.3	4.16 ± 0.28	4.16 ± 0.28
CC1CCCC1 [methylcyclopentane] + CCCCCCCCn1cc[n+](COCCC)c1C.O=S(=O)([N-]S(=O)(=O)C(F)(F)F)C(F)(F)F	2.72 ± 0.19	2.41 ± 0.16	2.27 ± 0.15
CC1CCCC1 [methylcyclopentane] + CCCCCCCCn1cc[n+](COCCCOC[n+]2ccn(CCCCCCCC)c2C)c1C.N#C[N-]C#N.N#C[N-]C#N	4.75 ± 0.32	4.7 ± 0.32	4.63 ± 0.32
CC1CCCC1 [methylcyclopentane] + CCCCCCCCn1cc[n+](COCCCOC[n+]2ccn(CCCCCCCC)c2C)c1C.O=S(=O)([N-]S(=O)(=O)C(F)(F)F)C(F)(F)F.O=S(=O)([N-]S(=O)(=O)C(F)(F)F)C(F)(F)F	2.52 ± 0.17	2.23 ± 0.15	2.17 ± 0.15
CC1CCCC1 [methylcyclopentane] + CCCOC[n+]1ccc(N(C)C)cc1.O=S(=O)([N-]S(=O)(=O)C(F)(F)F)C(F)(F)F	7.35 ± 0.5	7.22 ± 0.49	6.1 ± 0.42
CC1CCCC1 [methylcyclopentane] + CCCOC[n+]1ccn(C)c1.N#C[N-]C#N	27.7 ± 1.9	24.4 ± 1.7	–
CC1CCCC1 [methylcyclopentane] + CCCOC[n+]1ccn(Cc2ccccc2)c1.N#C[N-]C#N	15.7 ± 1.1	15.2 ± 1	13.5 ± 0.92
CC1CCCC1 [methylcyclopentane] + CCCOC[n+]1ccn(Cc2ccccc2)c1.O=S(=O)([N-]S(=O)(=O)C(F)(F)F)C(F)(F)F	5.48 ± 0.37	4.46 ± 0.3	4.02 ± 0.27
CC1CCCC1 [methylcyclopentane] + CN(C)c1cc[n+](COCCCOC[n+]2ccc(N(C)C)cc2)cc1.O=S(=O)([N-]S(=O)(=O)C(F)(F)F)C(F)(F)F.O=S(=O)([N-]S(=O)(=O)C(F)(F)F)C(F)(F)F	11 ± 0.75	9.51 ± 0.65	9 ± 0.61
CC1CCCC1 [methylcyclopentane] + Cn1cc[n+](COCCCOC[n+]2ccn(C)c2)c1.O=S(=O)([N-]S(=O)(=O)C(F)(F)F)C(F)(F)F.O=S(=O)([N-]S(=O)(=O)C(F)(F)F)C(F)(F)F	16.4 ± 1.1	10.2 ± 0.7	–
C[N+](=O)[O-] [nitromethane] + CCCCCCCCn1cc[n+](COCCC)c1C.N#C[N-]C#N	0.68 ± 0.05	0.66 ± 0.05	0.63 ± 0.04
C[N+](=O)[O-] [nitromethane] + CCCCCCCCn1cc[n+](COCCC)c1C.O=S(=O)([N-]S(=O)(=O)C(F)(F)F)C(F)(F)F	0.56 ± 0.04	0.52 ± 0.04	0.52 ± 0.04
C[N+](=O)[O-] [nitromethane] + CCCCCCCCn1cc[n+](COCCCOC[n+]2ccn(CCCCCCCC)c2C)c1C.N#C[N-]C#N.N#C[N-]C#N	0.44 ± 0.04	0.43 ± 0.04	0.42 ± 0.04
C[N+](=O)[O-] [nitromethane] + CCCCCCCCn1cc[n+](COCCCOC[n+]2ccn(CCCCCCCC)c2C)c1C.O=S(=O)([N-]S(=O)(=O)C(F)(F)F)C(F)(F)F.O=S(=O)([N-]S(=O)(=O)C(F)(F)F)C(F)(F)F	0.31 ± 0.03	0.29 ± 0.03	0.47 ± 0.04
C[N+](=O)[O-] [nitromethane] + CCCOC[n+]1ccc(N(C)C)cc1.O=S(=O)([N-]S(=O)(=O)C(F)(F)F)C(F)(F)F	0.54 ± 0.04	0.55 ± 0.04	0.54 ± 0.04
